Laboratory results as given in patent US20130112218A1, “USE OF ELLAGIC ACID AS AN ANTI-DANDRUFF AGENT” (priority 2010, published 2013).

Columns and labels:
[1] = tested on: yeasts of the Malassezia genus; test: Test of effectiveness in an aqueous-alcoholic gel by leave-in application; format: in vivo; details: ellagic acid 0.5% by weight in aqueous-alcoholic gel A, two applications per week, after one week of treatment, 25 individuals with dandruff, corneodisc count, placebo 29%
Procedure: The aqueous-alcoholic gel for leave-in use A according to the invention was prepared according to the following table. The amounts are indicated as percent by weight of active material (A.M.) relative to the total weight of the composition. The study was carried out on a group of 25 individuals who had scalps with dandruff displaying an excessive proliferation of yeasts of the Malassezia genus. After two weeks of neutral shampoo, the individuals were treated with gel A of the invention or with an equal amount of a placebo comparative composition (identical composition without ellagic acid), at a rate of two applications per week. The yeasts per unit surface area were counted using a corneodisc sample of squamae.

[2] = tested on: scalps with dandruff displaying an excessive proliferation of yeasts of the Malassezia genus; test: Test of effectiveness in a shampoo; format: in vivo; details: ellagic acid 1% by weight in shampoo B, rinsed out, twice a week for four weeks; 21 individuals with dandruff
Procedure: The shampoo B according to the invention was prepared according to the following table. The amounts are indicated as percent by weight of active material (A.M.) relative to the total weight of the composition. The study was carried out on a group of 21 individuals who had scalps with dandruff displaying an excessive proliferation of yeasts of the Malassezia genus. After two weeks of neutral shampoo, the shampoo composition B according to the invention was applied to the scalp for each individual. The composition was then rinsed out with water. This anti-dandruff treatment method was repeated twice a week for four weeks.

Q: Which “reduction in the number of Malassezia yeasts present on the scalp” value [1] does the source give for `O=c1oc2c(O)c(O)cc3c(=O)oc4c(O)c(O)cc1c4c23` [ellagic acid, 2,3,7,8-tetrahydroxy(1)benzopyrano(5,4,3-cde)(1)benzopyran-5,10-dione] here?
A: 56%

Q: What about the anti-dandruff effectiveness [2] of the same compound?
A: clear anti-dandruff effectiveness
